Source: ChEMBL document CHEMBL1144125, “Excavatolides U-Z, new briarane diterpenes from the gorgonian briareum excavatum” (1999)
In brackets after ≈: the same amount, converted by molar mass.

Experiments:
Assay type in all cases: functional
Details in all cases: read-out: ED50 (the source's name)
P388 = assay: Cytotoxicity against mouse P388 cells
KB = assay: Cytotoxicity against human KB cells
A549 = assay: Cytotoxicity against human A549 cells
HT-29 = assay: Cytotoxicity against human HT-29 cells

SMILES	EC50 (P388) [µg/mL]	EC50 (KB) [µg/mL]	EC50 (A549) [µg/mL]	EC50 (HT-29) [µg/mL]
CCCC(=O)O[C@@H]1C=C[C@]2(C)[C@H](OC(C)=O)C[C@@H](OC(C)=O)/C(C)=C\[C@@H]3OC(=O)[C@@]4(C)O[C@]34[C@H](OC(C)=O)[C@H]2[C@@]1(C)O	> 50	> 50	> 50	> 50
CCC(=O)O[C@@H]1C[C@@H](OC(C)=O)[C@@]2(C)C=C[C@@H](OC(C)=O)[C@](C)(O)[C@@H]2[C@@H](OC(C)=O)[C@]23O[C@]2(C)C(=O)O[C@H]3/C=C\1C	9.5 (≈ 16.4 µM)	> 50	> 50	15.1 (≈ 26.1 µM)
CCCC(=O)O[C@H]1C/C(C)=C\[C@@H]2OC(=O)[C@@]3(C)O[C@]23[C@H](OC(C)=O)[C@H]2[C@@H](C)[C@@H](OC(=O)CC)C[C@H](OC(C)=O)[C@]2(C)[C@@H]1OC(C)=O [EXCAVATOLIDE U]	> 50	> 50	> 50	> 50
CCC(=O)O[C@H]1C[C@H](OC(C)=O)[C@@]2(C)[C@H]([C@H]1C)[C@@H](OC(C)=O)[C@]13O[C@]1(C)C(=O)O[C@H]3/C=C(/C)C[C@H](OC(C)=O)[C@H]2OC(C)=O [EXCAVATOLIDE V]	3.9 (≈ 6.26 µM)	7 (≈ 11.2 µM)	19.1 (≈ 30.7 µM)	20.4 (≈ 32.8 µM)
CCC(=O)O[C@H]1C[C@H](OC(C)=O)[C@@]2(C)[C@H]([C@H]1C)[C@@H](O)[C@]13O[C@]1(C)C(=O)O[C@H]3/C=C(/C)CC[C@H]2OC(C)=O [EXCAVATOLIDE W]	19.4 (≈ 37.1 µM)	> 50	> 50	> 50
